Data published in ChEMBL document CHEMBL5537136 (J Med Chem, 2024).
Active and inactive are the calls of the source. No cut-off for these calls is given here.

What was measured:
[1] = molecular target: T1, Protein mono-ADP-ribosyltransferase TIPARP (Mus musculus) (UniProt Q8C1B2); assay: Inhibition of PARP7 in mouse CT26 cells assessed as increase in STAT1 phosphorylation incubated for 3 days by Western blot analysis; format: cell-based; details: dose 0.14-4 µM, time 3.0 day
T1 sequence (whole entry): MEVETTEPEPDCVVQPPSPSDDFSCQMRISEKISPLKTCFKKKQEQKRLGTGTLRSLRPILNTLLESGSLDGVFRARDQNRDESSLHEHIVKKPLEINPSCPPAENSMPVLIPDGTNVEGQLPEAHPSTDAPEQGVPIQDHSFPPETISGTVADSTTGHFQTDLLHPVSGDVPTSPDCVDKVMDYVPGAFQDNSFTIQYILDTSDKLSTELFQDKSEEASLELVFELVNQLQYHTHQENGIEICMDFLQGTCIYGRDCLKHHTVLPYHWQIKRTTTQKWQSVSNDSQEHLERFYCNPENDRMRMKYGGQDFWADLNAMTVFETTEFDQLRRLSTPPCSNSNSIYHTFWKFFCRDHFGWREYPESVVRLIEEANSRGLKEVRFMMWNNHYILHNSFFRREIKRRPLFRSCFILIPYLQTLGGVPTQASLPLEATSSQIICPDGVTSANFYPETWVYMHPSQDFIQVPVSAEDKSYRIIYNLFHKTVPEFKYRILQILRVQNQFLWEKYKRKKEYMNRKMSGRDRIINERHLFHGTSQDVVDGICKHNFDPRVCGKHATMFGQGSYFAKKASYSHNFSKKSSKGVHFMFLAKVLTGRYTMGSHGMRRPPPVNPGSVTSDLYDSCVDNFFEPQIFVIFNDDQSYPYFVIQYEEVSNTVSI

[2] = Toxicity in Balb/c mouse bearing mouse CT26 cells assessed as morphological changes in kidney at 6.25 to 25 mg/kg, IG measured after 14 days by hematoxylin and eosin staining based assay; format: organism-based; details: in vivo, po, 336 h, dose 6.25-25 mg/kg, time 14 day
CT26 = assay: Antitumor activity against mouse CT26 cells implanted in Balb/c mouse assessed as increase in infiltration CD8 positive T cells in tumors at 25 mg/kg, IG measured after 14 days by flow cytometry; format: functional, organism-based; details: time 14.0 day

C[C@@H](C(=O)N1CCN(c2ncc(C(F)(F)F)cn2)CC1)n1cc2cccc(C(N)=O)c2n1
inhibition [1]: Dose-Dependent Effect | Activity [2]: Non-Toxic | Activity (CT26): Active
